Measured values from patent US11433053B2, “LSD1 inhibitor and preparation method and application thereof” (CSPC ZHONGQI PHARMACEUTICAL TECHNOLOGY (SHIJIAZHUANG) CO., …, priority 2017, dated 2022).

Test system: human small cell lung cancer NCI-H1417 cells subcutaneous xenograft tumor
Assay: In vivo pharmacodynamic study, NCI-H1417 subcutaneous xenograft tumor CB-17 SCID mouse model
Parameters: species or system CB-17 SCID mice
Conditions: PO, QD
Description: The purpose of this experiment was to investigate the efficacy of some of the compounds of the present invention in the in vivo xenograft tumor of human small cell lung cancer NCI-H1417 cells in a CB-17 SCID mouse model.
Week age and weight: 6-8 weeks old, weight 18-23 g
Human small cell lung cancer NCI-H1417 cells were cultured in vitro in a single layer cultured in RPMI-1640 medium (Sigma-aldrich, R0883), supplemented with 10% fetal bovine serum and cultured at 37° C. 5% CO2. When the cell saturation is 80%-90%. The cells are harvested, counted, and inoculated.
0.2 mL of 10×10^6 (NCI-H1417 cells were subcutaneously inoculated into the right back of each mouse (PBS:Matrigel=1:1). After 21 days of tumor inoculation, group administration was started when the average volume reached 107 mm^3.
The experimental solvent was the 10% hydroxypropyl-β-cyclodextrin solution. The preparation method was as follows: 100 g of hydroxypropyl-β-cyclodextrin was weighed into a 1000 mL jar, 800 mL of ultrapure water was added, stirred overnight until completely dissolved, and then made up to 1000 mL. The test substance was dissolved in a solvent, and was prepared into a uniform solution of a certain concentration and stored at 4° C.
The experimental indicator is to investigate whether tumor growth is inhibited, delayed or cured. Tumor diameters were measured twice a week using vernier calipers. The tumor volume is calculated as: V=0.5a×b^2, and a and b represent the long and short diameters of the tumor, respectively.
The antitumor effect of the compound was evaluated by TG (%). TGI (%), reflecting the tumor growth inhibition rate. TGI (%) calculation: TGI (%)=[1−(the average tumor volume at the end of a treatment group−the average tumor volume at the beginning of the treatment group)/(the average tumor volume at the end of the treatment of the solvent control group−The average tumor volume at the start of treatment in the solvent control group) was ×100%. Solvent control: Vehicle (10% hydroxypropyl-β-cyclodextrin solution).

[1] = 1.5 mg/kg, day 27 after administration
[2] = 1.5 mg/kg, day 28 after administration
[3] = 5 mg/kg, day 28 after administration

Compound	TGI (%) [1] [%]	Tumor volume (mm^3) (Day 27) [1]	TGI (%) [2] [%]	Tumor volume (mm^3) (Day 28) [2]	TGI (%) [3] [%]	Tumor volume (mm^3) (Day 28) [3]
N[C@H]1CC[C@H](c2nc(C3(CN[C@@H]4C[C@H]4c4ccccc4)CC3)no2)CC1 [Example 144]	83.5	180 ± 21	–	–	–	–
N[C@H]1CC[C@@H](c2nc(C3(CN[C@@H]4C[C@H]4c4ccccc4)CC3)no2)CC1 [Example 145]	66.6	250 ± 40	–	–	–	–
N[C@H]1CC[C@H](c2cc(C3(CN[C@@H]4C[C@H]4c4ccccc4)CC3)no2)CC1 [Example 241]	–	–	66	251 ± 35	110	61 ± 10
